Consider seven compounds from PubChem BioAssay (NCI).

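Method: 48-hour compound exposure of cells in 96-well plates, five concentrations, linear interpolation of endpoints. The concentration for 50% growth inhibition is given as GI50. TGI: concentration producing complete growth inhibition.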

Holding throughout (experiment): DTP human tumour cell line panel, 48 h
Test [1] has as its system K-562 leukemia.
For test [2], the system named is T-47D breast.
For test [3], the system named is SF-539 CNS.
Test [4] concerns CAKI-1 renal.
In test [5] the test system is NCI-H460 lung.
The test system of test [6] is OVCAR-3 ovarian.
Test [7] relates to RXF 393 renal.
Test [8] deals with SN12C renal.
Test [9] concerns M14 melanoma.
The subject of test [10] is OVCAR-8 ovarian.

With `COCCOC(=O)NC(=O)Nc1ccc(/C(=N/O)c2ccc(Cl)cc2)cc1`, the concentration for 50% growth inhibition (GI50) (as a rule, the concentration that inhibits growth by half) is 0.0633 µM in [1]; 8.82 µM in test [2]; 0.121 µM in test [3]; 0.129 µM in test [5]; 0.0991 µM in test [6]; 0.0866 µM in [7]. The results for the GI50 in test [8], in test [9] and in test [10] were 0.157 µM, 0.0843 µM and 0.188 µM, respectively. The TGI (in general, the concentration giving total growth inhibition) in [1] was 31.9 µM; in [2], 50.5 µM; in test [3], 0.341 µM; in test [4], above 100 µM; in test [5], 13.7 µM; in [6] it was 4.4 µM. Besides, the TGI in test [7] turned out to be 3.2 µM; in [8] it was 59.3 µM; in [9], 18.4 µM; in test [10], 34.7 µM.

With `Cc1cc(C)c(C[N+](C)(C)C)c(C)c1C`, the GI50 is 0.416 µM in test [1]; 0.292 µM in test [2]; 0.292 µM in test [3]; 0.281 µM in test [4]; 0.367 µM in [5]; 0.638 µM in test [6]. Besides, the GI50 was 0.249 µM in test [7], 0.212 µM in test [8], 0.374 µM in [9] and 0.328 µM in [10]. The TGI in test [1] was above 100 µM; in test [2], 9.92 µM; in test [3], 4.86 µM; in test [4], above 26 µM; in test [5], above 100 µM; in test [6] it was 15.3 µM. Also, the TGI in [7] was 3.43 µM; in test [8] it was 23.4 µM; in [9], 11.1 µM; in [10], above 41.6 µM.

In the case of `COc1cc2c3c(n(CCCNCCN)c(=O)c2cc1OC)-c1cc2c(cc1C3=O)OCO2`, the GI50 is 0.601 µM in test [1]; above 100 µM in test [2]; 0.39 µM in test [3]; 0.836 µM in [4]; 1.24 µM in test [5]; 0.363 µM in test [6]. In addition, the GI50 in test [7] is 5.36 µM; in [8] it was 0.351 µM; in [9], 0.738 µM; in test [10] it was 0.259 µM. For the same compound, the TGI was 3.77 µM in test [1]; above 100 µM in test [2]; 2.22 µM in [3]; 5.87 µM in test [4]; above 49.9 µM in test [5]; 1.21 µM in [6]. Further, the total growth inhibition concentration (TGI) in [7] was above 51.8 µM; in test [8], 4.35 µM; in test [9] it was 5.26 µM; in test [10], 6.73 µM.

Regarding `COC1CC2C=C(C)/C=C/C=C/C(=O)NC(c3ccccc3)C/C=C/CCC(O)CC(=O)C2=C1O` (stereo unspecified), the GI50 was 0.212 µM in test [1]; 0.264 µM in test [2]; 0.28 µM in test [3]; 0.314 µM in test [4]; 0.24 µM in test [5]; 0.271 µM in test [6]. In addition, the concentration for 50% growth inhibition (GI50) in test [7] was 0.314 µM; in test [8] it was 0.227 µM; in test [9] it was 0.31 µM; in test [10], 0.208 µM. Further, the concentration for total growth inhibition (TGI) amounted to 1.03 µM in test [1]; 0.871 µM in test [2]; 0.912 µM in test [3]; 1.01 µM in test [4]; 1.19 µM in test [5]; 0.894 µM in [6]. Moreover, the TGI worked out at 1.09 µM in test [7], 1.11 µM in test [8], 1.47 µM in test [9] and 0.904 µM in test [10].

Consider `CC[C@@]1(O)C(=O)NCc2c1cc1n(c2=O)Cc2cc3c(N)cccc3nc2-1`, for which the GI50 in test [1] is 3.09 µM; in test [2], 0.623 µM; in [3], 1.04 µM; in test [4], 0.981 µM; in test [5] it was 0.305 µM; in test [6], 11 µM. The GI50 in test [7] was 5.35 µM; in test [8], 0.529 µM; in [9], 0.685 µM; in test [10] it was 2.39 µM. Moreover, the TGI in test [2] is above 19.9 µM; in test [3] it was 10.9 µM; in test [4], 5.51 µM; in test [5] it was 27.8 µM; in test [6] it was 40 µM; in [7], 24.9 µM. In addition, the total growth inhibition concentration (TGI) in test [8] was 35.2 µM; in test [9] it was above 65.8 µM; in test [10], above 78.7 µM.

Turning to `CC(C)c1ccc(C(=O)Nc2sc3c(c2C#N)CCC(=O)C3)cc1`, the GI50 in [1] is 0.203 µM; in test [2] it was 0.263 µM; in [3] it was 0.337 µM; in [4] it was 0.343 µM; in [5], 1.14 µM; in test [6], 0.396 µM. Besides, the GI50 in test [7] was 0.271 µM; in [8] it was 0.378 µM; in test [9], 0.592 µM; in test [10], 0.431 µM. For the same compound, the TGI was 1.48 µM in test [2]; 1.41 µM in [3]; 1.95 µM in [4]; above 35.9 µM in test [5]; 1.61 µM in test [6]; 1.14 µM in [7]. Moreover, the total growth inhibition concentration (TGI) in test [8] was above 100 µM; in test [9], 26.4 µM; in test [10], above 100 µM.

As to `COC(=O)c1c2c(c(C)[n+]([O-])c1C)C(=O)C=C(NCc1ccc(F)c(F)c1)C2=O`, the 50% growth inhibitory concentration (GI50) in test [1] is 0.0745 µM; in [2], 0.127 µM; in test [3], 0.487 µM; in test [4], 0.313 µM; in test [5] it was 0.45 µM; in test [6], 0.256 µM. Further, the GI50 in test [7] was 1.05 µM; in [8] it was 0.294 µM; in [9], 0.274 µM; in test [10], 0.291 µM. Further, the TGI in test [2] is 1.02 µM; in test [3], 1.67 µM; in test [4], 2.13 µM; in test [5] it was 1.79 µM; in [6], 0.766 µM; in test [7], 2.39 µM. Also, the total growth inhibition concentration (TGI) was found to be 1.03 µM in test [8], 1.38 µM in test [9] and 1.13 µM in test [10].
